Tests used:
Type in all cases: in vivo
[1] = tested on: pigweed, palmer (palmer pigweed, Amaranthus palmeri); experiment: Test C preemergence, plant response rating
kochia (Kochia scoparia) [2] = experiment: Test C preemergence, plant response rating
kochia (Kochia scoparia) [3] = experiment: Test A preemergence, visual injury rating; details: for Plant response rating, Kochia: 31 g ai/ha, 0 to 100 scale, 0 no effect, 100 complete control; for Kochia plant response rating: 125 g ai/ha, 0 to 100 scale (0 no effect, 100 complete control)
Method in brief: (§1)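 Visual 0–100 rating (100 = complete control) taken about 10 d post-treatment relative to untreated checks. Preemergence: directed soil spray on sown loam/sand pots. Postemergence: seedlings 2–10 cm, 1–2 leaf. Non-phytotoxic solvent formulation with surfactant.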

[4] = tested on: ragweed (common ragweed, Ambrosia elatior); experiment: Test A preemergence, visual injury rating; details: for Plant response rating, Ragweed: 31 g ai/ha, 0 to 100 scale, 0 no effect, 100 complete control; for Ragweed plant response rating: 125 g ai/ha, 0 to 100 scale (0 no effect, 100 complete control)
Method in brief: as §1

[5] = tested on: pigweed (Amaranthus retroflexus); experiment: Test A preemergence, visual injury rating; details: for Plant response rating, Pigweed: 31 g ai/ha, 0 to 100 scale, 0 no effect, 100 complete control; for Pigweed plant response rating: 125 g ai/ha, 0 to 100 scale (0 no effect, 100 complete control)
Method in brief: as §1

[6] = tested on: barnyardgrass (Echinochloa crus-galli); experiment: Test A preemergence, visual injury rating; details: for Plant response rating, Barnyardgrass: 31 g ai/ha, 0 to 100 scale, 0 no effect, 100 complete control; for Barnyardgrass plant response rating: 125 g ai/ha, 0 to 100 scale (0 no effect, 100 complete control)
Method in brief: as §1

[7] = tested on: giant foxtail (Setaria faberii); experiment: Test A preemergence, visual injury rating; details: for Plant response rating, Foxtail, Giant: 31 g ai/ha, 0 to 100 scale, 0 no effect, 100 complete control; for Foxtail, Giant plant response rating: 125 g ai/ha, 0 to 100 scale (0 no effect, 100 complete control)
Method in brief: as §1

[8] = tested on: Italian ryegrass (Lolium multiflorum); experiment: Test A preemergence, visual injury rating; details: for Plant response rating, Ryegrass, Italian: 31 g ai/ha, 0 to 100 scale, 0 no effect, 100 complete control; for Ryegrass, Italian plant response rating: 125 g ai/ha, 0 to 100 scale (0 no effect, 100 complete control)
Method in brief: as §1

[9] = tested on: blackgrass (Alopecurus myosuroides); experiment: Test A postemergence, visual injury rating; details: 0 is no effect, 100 is complete control; for Blackgrass plant response rating: 0 to 100 scale, approximately 10 days
Method in brief: as §1

kochia (Kochia scoparia) [10] = experiment: Test A postemergence, visual injury rating; details: 0 to 100 scale, 0 is no effect, 100 is complete control, approximately 10 days
Method in brief: as §1

corn (Zea mays) = experiment: Test A postemergence, visual injury rating; details: 0 is no effect, 100 is complete control; for Corn plant response rating: 0 to 100 scale, approximately 10 days
Method in brief: as §1

[11] = tested on: ragweed (common ragweed, Ambrosia elatior); experiment: Test A postemergence, visual injury rating; details: 0 to 100 scale, 0 is no effect, 100 is complete control, approximately 10 days
Method in brief: as §1

[12] = tested on: galium (catchweed bedstraw, Galium aparine); experiment: Test A postemergence, visual injury rating; details: 0 is no effect, 100 is complete control; for Galium plant response rating: 0 to 100 scale, approximately 10 days
Method in brief: as §1

[13] = tested on: pigweed (Amaranthus retroflexus); experiment: Test A postemergence, visual injury rating; details: 0 to 100 scale, 0 is no effect, 100 is complete control, approximately 10 days
Method in brief: as §1

[14] = tested on: barnyardgrass (Echinochloa crus-galli); experiment: Test A postemergence, visual injury rating; details: 0 is no effect, 100 is complete control; for Barnyardgrass plant response rating: 0 to 100 scale, approximately 10 days
Method in brief: as §1

[15] = tested on: giant foxtail (Setaria faberii); experiment: Test A postemergence, visual injury rating; details: 0 is no effect, 100 is complete control; for Foxtail, Giant plant response rating: 0 to 100 scale, approximately 10 days
Method in brief: as §1

[16] = tested on: Italian ryegrass (Lolium multiflorum); experiment: Test A postemergence, visual injury rating; details: 0 to 100 scale, 0 is no effect, 100 is complete control, approximately 10 days
Method in brief: as §1

[17] = tested on: wheat (Triticum aestivum); experiment: Test A postemergence, visual injury rating; details: 0 to 100 scale, 0 is no effect, 100 is complete control, approximately 10 days
Method in brief: as §1

[18] = tested on: wild mustard (Sinapis arvensis); experiment: Test C postemergence, plant response rating; details: for Mustard, Wild plant response rating: scale 0 to 100 (0 no effect, 100 complete control)
Method in brief: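 After sowing in loam–sand blend or silt loam, pots were sprayed preemergence; separately grown 1- to 4-leaf plants were sprayed postemergence. Following 13 to 15 d under greenhouse conditions, injury was rated visually on a 0 to 100 scale.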

[19] = tested on: surinam grass (Brachiaria decumbens); experiment: Test C preemergence, plant response rating

SMILES: O=C(CCCCC(F)(F)F)c1c(Br)cccc1Oc1ncc(Cl)cn1 [Compound 82]
- Plant response rating, Pigweed, Palmer ([1]; 31 g ai/ha, scale 0 to 100): 85
- Plant response rating, Pigweed, Palmer ([1]; 62 g ai/ha, scale 0 to 100): 100
- Plant response rating, Pigweed, Palmer ([1]; 125 g ai/ha, scale of 0 to 100): 100
- Plant response rating, Kochia (kochia (Kochia scoparia) [2]; 31 g ai/ha, scale 0 to 100): 50
- Plant response rating, Kochia (kochia (Kochia scoparia) [2]; 62 g ai/ha, scale 0 to 100): 90
- Plant response rating, Kochia (kochia (Kochia scoparia) [2]; 125 g ai/ha, scale of 0 to 100): 95
- Plant response rating, Kochia (kochia (Kochia scoparia) [3]): 70
- Kochia plant response rating (kochia (Kochia scoparia) [3]): 80
- Plant response rating, Ragweed [4]: 0
- Ragweed plant response rating [4]: 60
- Plant response rating, Pigweed [5]: 90
- Pigweed plant response rating [5]: 100
- Plant response rating, Barnyardgrass [6]: 50
- Barnyardgrass plant response rating [6]: 100
- Plant response rating, Foxtail, Giant [7]: 90
- Foxtail, Giant plant response rating [7]: 100
- Plant response rating, Ryegrass, Italian [8]: 0
- Ryegrass, Italian plant response rating [8]: 80
- Blackgrass plant response rating ([9]; 31 g ai/ha): 40
- Blackgrass plant response rating (0 to 100 scale) ([9]; 125 g ai/ha): 40
- Kochia plant response rating (kochia (Kochia scoparia) [10]; 31 g ai/ha): 80
- Kochia plant response rating (kochia (Kochia scoparia) [10]; 125 g ai/ha): 100
- Corn plant response rating (corn (Zea mays); 31 g ai/ha): 20
- Corn plant response rating (0 to 100 scale) (corn (Zea mays); 125 g ai/ha): 30
- Ragweed plant response rating ([11]; 31 g ai/ha): 40
- Ragweed plant response rating ([11]; 125 g ai/ha): 40
- Galium plant response rating ([12]; 31 g ai/ha): 90
- Galium plant response rating (0 to 100 scale) ([12]; 125 g ai/ha): 100
- Pigweed plant response rating ([13]; 31 g ai/ha): 100
- Pigweed plant response rating ([13]; 125 g ai/ha): 100
- Barnyardgrass plant response rating ([14]; 31 g ai/ha): 30
- Barnyardgrass plant response rating (0 to 100 scale) ([14]; 125 g ai/ha): 100
- Foxtail, Giant plant response rating ([15]; 31 g ai/ha): 30
- Foxtail, Giant plant response rating (0 to 100 scale) ([15]; 125 g ai/ha): 100
- Ryegrass, Italian plant response rating ([16]; 31 g ai/ha): 40
- Ryegrass, Italian plant response rating ([16]; 125 g ai/ha): 60
- Wheat plant response rating ([17]; 31 g ai/ha): 10
- Wheat plant response rating ([17]; 125 g ai/ha): 30
- Plant response rating, Mustard, Wild ([18]; 16 g ai/ha, scale of 0 to 100): 95
- Plant response rating, Mustard, Wild ([18]; 31 g ai/ha, scale 0 to 100): 95
- Mustard, Wild plant response rating ([18]; 62 g ai/ha): 100
- Mustard, Wild plant response rating ([18]; 125 g ai/ha): 100
- Plant response rating, Surinam Grass ([19]; 31 g ai/ha, scale 0 to 100): 10
- Plant response rating, Surinam Grass ([19]; 62 g ai/ha, scale 0 to 100): 25
- Plant response rating, Surinam Grass ([19]; 125 g ai/ha, scale of 0 to 100): 35

SMILES: FC(F)(F)CCCc1c(Br)cccc1Oc1ncc(Cl)cn1 [Compound 89]
- Plant response rating, Pigweed, Palmer ([1]; 31 g ai/ha, scale 0 to 100): 70
- Plant response rating, Pigweed, Palmer ([1]; 62 g ai/ha, scale 0 to 100): 90
- Plant response rating, Pigweed, Palmer ([1]; 125 g ai/ha, scale of 0 to 100): 98
- Plant response rating, Kochia (kochia (Kochia scoparia) [2]; 31 g ai/ha, scale 0 to 100): 60
- Plant response rating, Kochia (kochia (Kochia scoparia) [2]; 62 g ai/ha, scale 0 to 100): 85
- Plant response rating, Kochia (kochia (Kochia scoparia) [2]; 125 g ai/ha, scale of 0 to 100): 90
- Plant response rating, Kochia (kochia (Kochia scoparia) [3]): 10
- Kochia plant response rating (kochia (Kochia scoparia) [3]): 50
- Plant response rating, Ragweed [4]: 0
- Ragweed plant response rating [4]: 0
- Plant response rating, Pigweed [5]: 10
- Pigweed plant response rating [5]: 100
- Plant response rating, Barnyardgrass [6]: 20
- Barnyardgrass plant response rating [6]: 90
- Plant response rating, Foxtail, Giant [7]: 10
- Foxtail, Giant plant response rating [7]: 50
- Plant response rating, Ryegrass, Italian [8]: 0
- Ryegrass, Italian plant response rating [8]: 20
- Blackgrass plant response rating ([9]; 31 g ai/ha): 20
- Blackgrass plant response rating ([9]; 125 g ai/ha): 60
- Kochia plant response rating (kochia (Kochia scoparia) [10]; 31 g ai/ha): 80
- Kochia plant response rating (kochia (Kochia scoparia) [10]; 125 g ai/ha): 90
- Corn plant response rating (corn (Zea mays); 31 g ai/ha): 10
- Corn plant response rating (corn (Zea mays); 125 g ai/ha): 20
- Ragweed plant response rating ([11]; 31 g ai/ha): 10
- Ragweed plant response rating ([11]; 125 g ai/ha): 10
- Galium plant response rating ([12]; 31 g ai/ha): 30
- Galium plant response rating ([12]; 125 g ai/ha): 80
- Pigweed plant response rating ([13]; 31 g ai/ha): 90
- Pigweed plant response rating ([13]; 125 g ai/ha): 90
- Barnyardgrass plant response rating ([14]; 31 g ai/ha): 30
- Barnyardgrass plant response rating ([14]; 125 g ai/ha): 90
- Foxtail, Giant plant response rating ([15]; 31 g ai/ha): 20
- Foxtail, Giant plant response rating ([15]; 125 g ai/ha): 50
- Ryegrass, Italian plant response rating ([16]; 31 g ai/ha): 10
- Ryegrass, Italian plant response rating ([16]; 125 g ai/ha): 30
- Wheat plant response rating ([17]; 31 g ai/ha): 0
- Wheat plant response rating ([17]; 125 g ai/ha): 20
- Plant response rating, Mustard, Wild ([18]; 16 g ai/ha, scale of 0 to 100): 100
- Mustard, Wild plant response rating ([18]; 62 g ai/ha): 100
- Plant response rating, Surinam Grass ([19]; 31 g ai/ha, scale 0 to 100): 35
- Plant response rating, Surinam Grass ([19]; 62 g ai/ha, scale 0 to 100): 65
- Plant response rating, Surinam Grass ([19]; 125 g ai/ha, scale of 0 to 100): 75

From US11053204B2, “Pyrimidinyloxy benzene derivatives as herbicides” (FMC Corporation, priority 2015, dated 2021)
